Reference: US7199114B2, “Triterpene quaternary salts as biologically active surfactants” (The Regents of the University of Minnesota, priority 2002, dated 2007)

Assays:
dollar spot fungus = assay: Turf plot trial at Clemson University (Example 85), area affected by dollar spot; type: in vivo, Agrostis stolonifera; details: 50 grams active ingredient per 1000 square feet
Procedure: (§1) Plots of creeping bentgrass, cv. “Pennlinks,” were treated with water based sprays of the test compounds. Sprays were delivered by CO2-charged sprayer to deliver the equivalent of 2 gallons of spray per 1000 sq. ft of plot area. Plots were 15 sq. ft. each, and treatments were mixed to apply material to 75 sq. ft (5 replicates), although only 4 replicates were treated. […] Daconil Ultrex® was applied at 3.2 oz./1000 sq. ft. for 14 days. The experiment used a randomized complete block design, with 4 replicates per treatment. Disease pressure was high. Pennlinks […] is moderately to highly susceptible to both dollar spot and brown patch. For brown patch, caused by Rhozoctonia sofani. a visual estimate of the percent of the plot area affected was recorded. Turf quality was estimated on a 1 to 9 scale, with 1 being worst and 9 being perfect. A rating of 6 is considered acceptable.
(§2) Plots of creeping bentgrass, cv. Pennlinks, were treated with water-based sprays as in Example 84 at Clemson University. Treatment application dates were May 7. May 14, May 28, and June 11. Plots were rated visually, estimating the percent of the area affected by dollar spot fungus […]. Turf quality was rated on a 1 to 9 scale, with 9 being perfect turf, as in Example 84. Disease pressure was moderately high to high when the trial was initiated, with existing dollar spot present.

[1] = Turf plot trial at Clemson University (Example 85), turf quality; type: in vivo, creeping bentgrass, cv. Pennlinks; details: 1 to 9 scale, 50 grams active ingredient per 1000 square feet
Procedure: as §1, §2

[2] = test system: dollar spot fungus (Agrostis stolonifera); assay: Turf plot trial at Clemson University (Example 85), area affected by dollar spot; type: in vivo; details: for % of area infected: 50 grams active ingredient per 1000 square feet
Procedure: as §1, §2

[3] = test system: Staphylococcus aureus Methicillin-sensitive; assay: Anti-bacterial activity, broth culture MIC; type: cell-based; details: Staphylococcus aureus Methicillin-sensitive; broth culture, triplicate
Procedure: Several uncharged or negatively charged triterpenes, and several positively charged triterpenes of the invention were tested for anti-bacterial activity against antibiotic-susceptible and antibiotic resistant strains of four types of bacteria of concern in clinics and hospitals. The triterpenes weres tested in broth culture in triplicate for ability to inhibit bacterial growth. The compounds tested are those listed below.
The lowest concentration which inhibits bacterial growth is referred to as the minimum inhibitory concentration (MIC), the standard measurement of anti-microbial activity.

SMILES	% of area infected (dollar spot fungus; Table 5 c2, Jun. 3, 2002) [a %]	% of area infected (dollar spot fungus; Table 5 c4, Jun. 3, 2002)	% of area infected (dollar spot fungus; Table 6, May 8, 2002) [a %]	% of area infected (dollar spot fungus; Table 6, May 13, 2002) [a %]	% of area infected (dollar spot fungus; Table 6, May 20, 2002)	% of area infected (dollar spot fungus; Table 6, May 27, 2002)	Turf quality ([1]; Table 5, Jun. 3, 2002)	Turf quality ([1]; Table 5, Jun. 17, 2002)	Turf quality ([1]; Table 5, May 27, 2002)	Turf quality ([1]; Table 6, May 8, 2002) [a]	Turf quality ([1]; Table 6, May 13, 2002) [a]	Turf quality ([1]; Table 6, May 20, 2002)	% of area infected ([2]; Table 5 c2, Jun. 3, 2002) [b %]	% of area infected ([2]; Table 5 c4, Jun. 3, 2002) [b %]	% of area infected ([2]; Table 6, May 8, 2002) [a %]	% of area infected ([2]; Table 6, May 13, 2002) [a %]	% of area infected ([2]; Table 6, May 20, 2002) [c %]	% of area infected ([2]; Table 6, May 27, 2002) [d %]	extent of dollar spot infection ([2]; by the end of the treatment trial, compared to the no treatment control (text summary of Tables 5 and 6))	Approximate Minimum Inhibitory Concentration, MIC [3] [µg/mL]
C=C(C)[C@@H]1CC[C@]2(COC(=O)C(C)[N+]34CCN(CC3)CC4)CC[C@]3(C)C(CCC4[C@@]5(C)CC[C@H](OC(=O)C(C)[N+]67CCN(CC6)CC7)C(C)(C)C5CC[C@]43C)C12.Cl.Cl (stereo partly drawn) [Compound 22, Lup-20(29)-ene-3,28-bis[N-(1,4-diazabicyclo [2.2.2]octyl)-2-propionate]-dichloride]	24.5	17.3 ab %	34.3	28.5	31.5 bc %	32.0 ab %	4.80 abc	5.07 ab	3.05 b	3.00	3.13	2.95 ab	–	–	–	–	–	–	–	–
C=C(C)[C@@H]1CC[C@]2(COC(=O)C[N+](C)(C)CCCCCCCC)CC[C@]3(C)C(CCC4[C@@]5(C)CC[C@H](OC(=O)C[N+](C)(C)CCCCCCCC)C(C)(C)C5CC[C@]43C)C12.[Cl-].[Cl-] (stereo partly drawn) [Compound 53, Lup-20(29)-ene-3,28-bis(octyldimethylammoniumacetate) dichloride]	22.5	19.5 ab %	33.5	28.5	27.3 bc %	26.8 bcd %	5.18 ab	5.38 ab	3.60 ab	3.00	3.05	3.25 ab	–	–	–	–	–	–	–	–
C=C(C)[C@@H]1CC[C@]2(COC(=O)C[N+](C)(C)CCCCCCCCCCCCCC)CC[C@]3(C)C(CCC4[C@@]5(C)CC[C@H](OC(=O)C[N+](C)(C)CCCCCCCCCCCCCC)C(C)(C)C5CC[C@]43C)C12.[Cl-].[Cl-] (stereo partly drawn) [Compound 55, Lup-20(29)-ene-3,28-bis(tetradecyldimethylamoniumacetate) dichloride]	28.8	24.3 a %	33.5	30.0	32.8 b %	29.3 a-d %	5.10 ab	5.2 ab	3.38 ab	3.05	3.00	2.97 ab	–	–	–	–	–	–	–	–
C=C(C)[C@@H]1CC[C@]2(CO)CC[C@]3(C)C(CCC4[C@@]5(C)CC[C@H](OC(=O)C[N+](C)(CCCCCCCCCC)CCCCCCCCCC)C(C)(C)C5CC[C@]43C)C12.[Cl-] (stereo partly drawn) [Compound 67, Betulin-3-(didecylmethylammoniumacetoxy) chloride]	–	–	–	–	–	–	6.00 a	5.80 a	4.85 a	3.20	3.17	3.55 a	13.0	9.0	28.3	26.0	24.3	21.0	best results	–
C=C(C)C1CCC2(COC(=O)CCC(=O)O)CC[C@@]3(C)C(CCC4[C@@]5(C)CCC(OC(=O)CCC(=O)O)C(C)(C)C5CC[C@]43C)C12 (stereo partly drawn) [Compound 91, betulin-3,28-disuccinate, reference compound]	–	–	–	–	–	–	–	–	–	–	–	–	–	–	–	–	–	–	–	200
C=C(C)C1CCC2(COC(=O)CCC(=O)O)CC[C@@]3(C)C(CCC4[C@@]5(C)CCC(O)C(C)(C)C5CC[C@]43C)C12 (stereo partly drawn) [Compound 92, betulin-28-succinate, reference compound]	–	–	–	–	–	–	–	–	–	–	–	–	–	–	–	–	–	–	–	50
